For this assay, the system named is skin of the forearm. Put plainly: in vivo tanning test: skin colour read with Minolta CR 200 Chromameter after UVA irradiation. Particulars: for Percentage increase WHITE (-L*) / Percentage increase RED (a*) / Percentage increase YELLOW (B*): 15 volunteers, forearm skin, UVA 10 minutes every 24 hours, irradiated untreated skin = 100%. On the set-up: species or system volunteers. The procedure:
In order to evaluate the effectiveness of the group of components in question in extending the formation of a tan, an in vivo test with a cream containing tyrosine conjugated with 0.750 oleic acid was carried out in vivo on 15 volunteers over a period of 14 days. Three adjacent zones on the skin of the forearm of each volunteer were identified. The first irradiated zone was treated with an emulsion containing only a sun filter (placebo), the second with an emulsion containing both the filter and the lipophilic tyrosine, the third was not treated with any emulsion (control) . The three zones of the skin were irradiated simultaneously with UVA light for 10 minutes every 24 hours (1 hour after application of the creams) for two weeks. The skin colour was read instrumentally using the Minolta® CR 200 Chromameter instrument, a device for measuring the colour of surfaces which is capable of analysing the strength of the colouration using a Xenon lamp, subdividing it into three different parameters (corresponding to the white component (-L*), the red component (a*) and the yellow component (B*)). Each reading was made 24 hours after each exposure to UVA light, in order to minimise instantaneous pigmentation phenomena. The average percentage increase in the colour of the skin treated with lipophilic tyrosine in comparison with the portion of the skin treated with placebo was calculated, assigning a value of 100% to the strength of the colour of the irradiated skin in the absence of emulsion.
Values of the average percentage increase in the white, red and yellow parameters found are shown in the following table: Percentage increase in the 3 parameters

With tyrosine conjugated with oleic acid, the “Percentage increase WHITE (-L*)” value runs as follows: (1st day, emulsion with filter and lipophilic tyrosine vs placebo (filter only), reading 24 hours after exposure) -70.20%; (6th day, vs placebo) -79.00%; (Mean after 14 days, vs placebo) -69.00%. For the same substance, the “Percentage increase RED (a*)” value (1st day, vs placebo) was found to be 66.60%; the “Percentage increase RED (a*)” value (6th day, vs placebo) is on record as 73.16%; the “Percentage increase RED (a*)” value (Mean after 14 days, vs placebo) came out at 73.50%. Also, the “Percentage increase YELLOW (B*)” value is reported as 62.26% (6th day, vs placebo) and 65.00% (Mean after 14 days, vs placebo). The “decrease in white with simultaneous increase in the red and yellow components over time” value (treated skin in comparison with skin treated with placebo) was “significantly greater”.

(Values after EP1624852B1, “SUN TANNING PRODUCTS AND PRODUCTS FOR TREATMENT OF THE SKIN BEFORE AND AFTER EXPOSURE TO THE SUN” (Gecomwert Anstalt, priority 2003, dated 2004).)
